Source: patent US11952362B2, “Compositions and methods for treating epigenetic disease” (The Regents of the University of California, priority 2018, dated 2024)
Entries after “also recorded” stand apart in the source; their conditions may differ. Each block holds one compound with its values, some of them ahead of it.

Key:
TNBS colitis = TNBS colitis in mice; format: in vivo; conditions: for overall score: overall efficacy
Protocol: Male C57BL/6J mice 8-10 weeks old were purchased from The Jackson Laboratory (Sacramento, CA, USA). Mice were housed 4 per cage, maintained on a 12:12 hour light-dark cycle and given access to food and water ad libitum. Following an acclimatization period of 3 to 5 days, trinitrobenzene sulfonic acid (TNBS, Millipore Sigma, St. Louis, MO, USA) colitis was induced by intracolonic (i.c.) injection of 0.05 ml TNBS solution (5 mg in 40% ethanol) via a polyethylene cannula (BD Intramedic PE-20 tubing, Thermo Fisher Scientific, Santa Clara, CA, USA) inserted 3.5 cm from the anal verge under isoflurane anesthesia (4% in O2 induction, 2.5-3% maintenance). Control mice received an injection of 40% ethanol (0.05 ml, i.c.). To test the effectiveness of the HDAC analogs, mice received a daily injection (0.1 ml, i.c.) of a selective HDAC class II inhibitor analog (50 mg/kg MJK001-013) or vehicle (5% dimethyl sulfoxide, Millipore Sigma) beginning one day prior to TNBS colitis induction (day −1) for a period of 5 days. Separate groups of mice received HDAC inhibitors or vehicle administered by daily oral gavage (50 mg/kg, 0.25 ml, p.o.). All analogs tested were first dissolved in dimethyl sulfoxide (DMSO) with rapid vortexing and subsequent dilution to 5% in sterile phosphate buffered saline (PBS; Gibco, Thermo Fisher Scientific). Vehicle contained 5% DMSO in sterile PBS. Prior to use, all solids were stored in amber (light-blocking) storage vials at 4° C. On the first day of administration, stock solutions were prepared, aliquoted and stored at −20° C. for daily use. Upon thawing, each aliquot was vortexed prior to intracolonic injection (via a polyethylene cannula) or oral gavage (20 ga×38 mm, Instech, Thermo Fisher Scientific). Following all in vivo experiments, animals were euthanized on day 4 by CO2 inhalation and cervical dislocation and the distal colons removed for further study.
Disease severity was assessed by weight loss and measurement of colon length and determination of clinical and histological damage scores on day 4 of the protocol. Briefly, clinical scores were calculated on a scale of 0-3 for degree of weight loss, bleeding, stool consistency and presence of rectal prolapse. Sections of colon (5 μm) fixed in 10% formalin, paraffin-embedded and stained with hematoxylin and eosin (H&E) were used for histological scoring using an AxioImager. Z1 microscope equipped with AxioVision software version 4.6 (Zeiss, Jena, Germany). Scoring was performed by two independent investigators blinded to the treatment conditions and resulting scores averaged. Scores were assigned based on the degree of crypt damage (0-4), polymorphonuclear neutrophil (PMN) infiltrate (0-3), erosion (0-3), and edema (0-3).
Statistical analyses were performed using GraphPad Prism (Version 5.0a; GraphPad Software, La Jolla, CA, USA). Differences were determined by unpaired t-test, 1-way analysis of variance, or a 2-way analysis of variance with Tukey's post-test. A p value <0.05 was considered to be statistically significant. Data presented are means±SEM for n animals.
Novel chemical HDAC inhibitors were developed aiming to target specific isoforms of the HDAC Class IIA members. Overall, as shown above, compounds have been synthesized, named MJK-001, -002, -003, -004, -005, -006, -007, -008, -009, -010, -011, -012 & -013. The effect of selective HDAC class IIA isoform inhibition during development of colitis in mice in vivo during TNBS administration was assessed. This mouse model is known to recapitulate many features of human Crohn's Disease. Mice received either an intracolonic (i.c.) injection or oral delivery (p.o.) of the MJK compounds once daily for a period of 5 days and health status, weight loss, and disease activity were monitored. Mice (male C57BL/6J, 8-10 wks old) are weighed and monitored daily. On the final day, blood, feces, and colonic samples for RNA, protein and histology are collected for downstream analysis. […]

HDAC4 = molecular target: T1, HDAC4 (Homo sapiens, UniProt P56524); test: Fluorogenic HDAC4 activity assay; format: biochemical; conditions: fluorogenic assay kit, in words
T1 construct: purchased BPS Bioscience 50064
T1 sequence (P56524 whole entry): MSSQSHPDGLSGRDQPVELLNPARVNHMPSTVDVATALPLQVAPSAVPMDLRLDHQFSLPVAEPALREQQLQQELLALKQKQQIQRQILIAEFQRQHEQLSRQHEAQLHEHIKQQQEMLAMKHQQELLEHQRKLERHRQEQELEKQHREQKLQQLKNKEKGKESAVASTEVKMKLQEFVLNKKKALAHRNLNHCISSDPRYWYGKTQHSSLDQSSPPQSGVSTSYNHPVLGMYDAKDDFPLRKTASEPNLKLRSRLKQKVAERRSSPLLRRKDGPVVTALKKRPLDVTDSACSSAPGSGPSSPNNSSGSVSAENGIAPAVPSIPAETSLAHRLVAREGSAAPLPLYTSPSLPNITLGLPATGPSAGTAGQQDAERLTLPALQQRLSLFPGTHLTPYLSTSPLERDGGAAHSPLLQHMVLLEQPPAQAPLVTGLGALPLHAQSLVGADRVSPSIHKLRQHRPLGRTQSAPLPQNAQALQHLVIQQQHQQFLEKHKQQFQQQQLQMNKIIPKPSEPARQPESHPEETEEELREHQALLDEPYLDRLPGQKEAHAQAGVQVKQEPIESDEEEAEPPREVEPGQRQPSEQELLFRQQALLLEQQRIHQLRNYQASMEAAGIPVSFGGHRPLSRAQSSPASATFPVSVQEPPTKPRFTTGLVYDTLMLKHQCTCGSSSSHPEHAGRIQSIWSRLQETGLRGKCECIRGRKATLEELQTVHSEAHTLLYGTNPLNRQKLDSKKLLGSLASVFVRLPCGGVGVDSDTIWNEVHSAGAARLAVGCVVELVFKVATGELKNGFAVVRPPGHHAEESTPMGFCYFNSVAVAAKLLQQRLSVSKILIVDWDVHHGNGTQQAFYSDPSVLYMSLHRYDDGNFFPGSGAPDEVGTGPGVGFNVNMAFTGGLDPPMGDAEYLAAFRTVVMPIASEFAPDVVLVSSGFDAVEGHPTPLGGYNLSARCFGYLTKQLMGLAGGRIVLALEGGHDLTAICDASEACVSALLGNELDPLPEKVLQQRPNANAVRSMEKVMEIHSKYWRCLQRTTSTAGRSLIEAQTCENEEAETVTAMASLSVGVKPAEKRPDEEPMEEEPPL
Protocol: (§1) To measure the effects of MJK-001, -004, -006 and -008 on HDAC4 & 9 activity fluorogenic HDAC9 (#50069) and HDAC4 (#50064) assay kits (BPS Bioscience) were used. Briefly, these assays consist of two steps; in the first one the HDAC fluorometric substrate containing an acetylated lysine side chain is incubated with purified HDAC9. In the second step, the deacetylation sensitizes the substrate so subsequent treatment with the lysine developer produces a fluorophore that was measured by a fluorescence reader.

HDAC9 = molecular target: T2, HDAC9 (Homo sapiens, UniProt Q9UKV0); test: Fluorogenic HDAC9 activity assay; format: biochemical; conditions: fluorogenic assay kit, in words
T2 construct: purchased BPS Bioscience 50069
T2 sequence (Q9UKV0 whole entry): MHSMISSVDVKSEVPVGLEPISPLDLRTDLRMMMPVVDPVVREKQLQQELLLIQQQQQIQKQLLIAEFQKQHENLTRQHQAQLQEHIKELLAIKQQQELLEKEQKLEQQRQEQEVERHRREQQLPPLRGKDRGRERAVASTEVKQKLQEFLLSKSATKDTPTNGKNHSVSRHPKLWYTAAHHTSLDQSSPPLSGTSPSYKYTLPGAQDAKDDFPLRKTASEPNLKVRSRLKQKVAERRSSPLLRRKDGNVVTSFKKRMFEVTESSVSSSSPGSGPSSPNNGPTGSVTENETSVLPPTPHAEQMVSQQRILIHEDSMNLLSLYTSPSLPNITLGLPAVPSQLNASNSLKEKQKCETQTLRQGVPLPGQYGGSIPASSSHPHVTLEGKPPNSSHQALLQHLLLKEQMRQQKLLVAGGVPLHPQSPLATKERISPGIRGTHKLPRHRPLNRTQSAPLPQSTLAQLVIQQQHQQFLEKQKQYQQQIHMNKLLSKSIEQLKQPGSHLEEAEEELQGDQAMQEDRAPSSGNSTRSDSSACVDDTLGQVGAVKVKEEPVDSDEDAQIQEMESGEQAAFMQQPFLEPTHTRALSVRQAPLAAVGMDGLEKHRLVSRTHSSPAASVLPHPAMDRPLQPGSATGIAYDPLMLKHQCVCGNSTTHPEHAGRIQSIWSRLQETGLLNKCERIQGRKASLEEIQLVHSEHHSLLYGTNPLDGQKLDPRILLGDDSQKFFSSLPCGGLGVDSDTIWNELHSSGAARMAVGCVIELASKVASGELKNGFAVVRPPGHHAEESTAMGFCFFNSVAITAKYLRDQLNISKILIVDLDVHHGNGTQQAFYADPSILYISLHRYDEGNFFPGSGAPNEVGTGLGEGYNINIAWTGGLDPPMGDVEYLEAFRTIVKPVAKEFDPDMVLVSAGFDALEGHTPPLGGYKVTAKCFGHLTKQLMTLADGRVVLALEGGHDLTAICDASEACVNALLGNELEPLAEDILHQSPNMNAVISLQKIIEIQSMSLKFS
Protocol: as §1

[1] = i.c. administration, 50 mg/kg daily for 5 days, day 4, vs vehicle-treated mice, 50 mg/kg
[2] = i.c. administration, 50 mg/kg daily for 5 days, day 4, vs vehicle-treated mice, listed as MJK-001, 50 mg/kg
[3] = i.c. administration, 50 mg/kg daily for 5 days, day 4, vs vehicle-treated mice, listed as MJK-004, 50 mg/kg
[4] = i.c. administration, 50 mg/kg daily for 5 days, day 4, vs vehicle-treated mice, hydrochloride, 50 mg/kg
[5] = i.c. administration, 50 mg/kg daily for 5 days, day 4, vs vehicle-treated mice, listed as MJK-008, hydrochloride, 50 mg/kg
[6] = oral administration (p.o., 50 mg/kg daily)

HDAC4 activity / specificity (HDAC4): partially blocks
HDAC9 activity / specificity (HDAC9): partially blocks
Structure (SMILES): Cn1c(/C=C/C(=O)NO)ccc1/C=C/C(=O)c1cccc(F)c1 [MJK001, (E)-3-(5-((E)-3-(3-Fluorophenyl)-3-oxoprop-1-en-1-yl)-1-methyl-1H-pyrrol-2-yl)-N-hydro-xyacrylamide]
histological score (TNBS colitis; i.c. administration, 50 mg/kg daily for 5 days, day 4, vs vehicle-treated mice): ♦♦
clinical score (TNBS colitis; [1]): ♦♦
colon length (TNBS colitis; [1]): ♦♦
clinical score (TNBS colitis; [2]): statistical significance in the reduction of the clinical score
colon length (TNBS colitis; [2]): increase of colon length

HDAC4 activity / specificity (HDAC4): high specificity for HDAC4
HDAC9 activity / specificity (HDAC9): very low activity against HDAC9
Structure (SMILES): Cn1c(/C=C/C(=O)NO)ccc1/C=C/C(=O)c1cccs1 [MJK004, (E)-N-hydroxy-3-(1-methyl-5-((E)-3-oxo-3-(thiophen-2-yl)prop-1-en-1-yl)-1H-pyrrol-2-yl)acrylamide]
clinical score (TNBS colitis; [1]): ♦♦
colon length (TNBS colitis; [1]): ns
clinical score (TNBS colitis; [3]): reduction in clinical scoring
colon length (TNBS colitis; [3]): did not alter colon length

HDAC4 activity / specificity (HDAC4): decreased HDAC4 specificity
Structure (SMILES): Cn1c(/C=C/C(=O)NO)ccc1/C=C/C(=O)c1cccnc1 [MJK006, (E)-N-hydroxy-3-(1-methyl-5-((E)-3-oxo-3-(pyridin-3-yl)prop-1-en-1-yl)-1H-pyrrol-2-yl)acrylamide]
clinical score (TNBS colitis; [1]): ♦♦
colon length (TNBS colitis; [1]): ♦♦
histological score (TNBS colitis; [1]): ♦♦♦
histological score (TNBS colitis; i.c. administration, 50 mg/kg daily for 5 days, day 4, vs vehicle-treated mice, listed as MJK-006, 50 mg/kg): significant differences
overall score (TNBS colitis; i.c. administration): substantial effect on suppressing TNBS-induced colitis
HDAC9 activity / specificity (HDAC9): high specificity for the HDAC9 isoform; also recorded: significantly increased specificity of targeting the HDAC9 isoform

HDAC4 activity / specificity (HDAC4): decreased HDAC4 specificity
Structure (SMILES): Cl.Cn1c(/C=C/C(=O)NO)ccc1/C=C/C(=O)c1cccnc1 [MJK008, (E)-N-Hydroxy-3-(1-methyl-5-((E)-3-oxo-3-(pyridin-3-yl)prop-1-en-1-yl)-1H-pyrrol-2-yl)ac-rylamide hydrochloride]
clinical score (TNBS colitis; [4]): ♦♦
colon length (TNBS colitis; [4]): ♦
histological score (TNBS colitis; [4]): ♦♦♦
clinical score (TNBS colitis; [5]): decreasing the clinical and histological score
colon length (TNBS colitis; [5]): significant effect in preserving colon length
histological score (TNBS colitis; [5]): decreasing the clinical and histological score
overall score (TNBS colitis; i.c. administration, hydrochloride): substantial effect on suppressing TNBS-induced colitis
clinical score (TNBS colitis; [6]): highly efficient in reducing the clinical score
colon length (TNBS colitis; [6]): preserving colon length
histology score (TNBS colitis; [6]): decreasing the histology score
HDAC9 activity / specificity (HDAC9; hydrochloride): high specificity for the HDAC9 isoform; also recorded: significantly increased specificity of targeting the HDAC9 isoform
